Assay results taken from paper PMC9136259 (Food Chemistry: X, 2022).

Key:
[1] = target: T1, xanthine oxidase (XOD, from bovine milk) (Bos taurus, UniProt P80457); assay: xanthine oxidation, absorbance at […] nm, microplate; assay type: biochemical
[2] = target: T1, xanthine oxidase (XOD, from bovine milk); assay: intrinsic fluorescence quenching; assay type: binding; conditions: 0.2 M PBS pH 7.5; 298, 304 and 310 K; static quenching

T1 sequence (P80457 2-1332): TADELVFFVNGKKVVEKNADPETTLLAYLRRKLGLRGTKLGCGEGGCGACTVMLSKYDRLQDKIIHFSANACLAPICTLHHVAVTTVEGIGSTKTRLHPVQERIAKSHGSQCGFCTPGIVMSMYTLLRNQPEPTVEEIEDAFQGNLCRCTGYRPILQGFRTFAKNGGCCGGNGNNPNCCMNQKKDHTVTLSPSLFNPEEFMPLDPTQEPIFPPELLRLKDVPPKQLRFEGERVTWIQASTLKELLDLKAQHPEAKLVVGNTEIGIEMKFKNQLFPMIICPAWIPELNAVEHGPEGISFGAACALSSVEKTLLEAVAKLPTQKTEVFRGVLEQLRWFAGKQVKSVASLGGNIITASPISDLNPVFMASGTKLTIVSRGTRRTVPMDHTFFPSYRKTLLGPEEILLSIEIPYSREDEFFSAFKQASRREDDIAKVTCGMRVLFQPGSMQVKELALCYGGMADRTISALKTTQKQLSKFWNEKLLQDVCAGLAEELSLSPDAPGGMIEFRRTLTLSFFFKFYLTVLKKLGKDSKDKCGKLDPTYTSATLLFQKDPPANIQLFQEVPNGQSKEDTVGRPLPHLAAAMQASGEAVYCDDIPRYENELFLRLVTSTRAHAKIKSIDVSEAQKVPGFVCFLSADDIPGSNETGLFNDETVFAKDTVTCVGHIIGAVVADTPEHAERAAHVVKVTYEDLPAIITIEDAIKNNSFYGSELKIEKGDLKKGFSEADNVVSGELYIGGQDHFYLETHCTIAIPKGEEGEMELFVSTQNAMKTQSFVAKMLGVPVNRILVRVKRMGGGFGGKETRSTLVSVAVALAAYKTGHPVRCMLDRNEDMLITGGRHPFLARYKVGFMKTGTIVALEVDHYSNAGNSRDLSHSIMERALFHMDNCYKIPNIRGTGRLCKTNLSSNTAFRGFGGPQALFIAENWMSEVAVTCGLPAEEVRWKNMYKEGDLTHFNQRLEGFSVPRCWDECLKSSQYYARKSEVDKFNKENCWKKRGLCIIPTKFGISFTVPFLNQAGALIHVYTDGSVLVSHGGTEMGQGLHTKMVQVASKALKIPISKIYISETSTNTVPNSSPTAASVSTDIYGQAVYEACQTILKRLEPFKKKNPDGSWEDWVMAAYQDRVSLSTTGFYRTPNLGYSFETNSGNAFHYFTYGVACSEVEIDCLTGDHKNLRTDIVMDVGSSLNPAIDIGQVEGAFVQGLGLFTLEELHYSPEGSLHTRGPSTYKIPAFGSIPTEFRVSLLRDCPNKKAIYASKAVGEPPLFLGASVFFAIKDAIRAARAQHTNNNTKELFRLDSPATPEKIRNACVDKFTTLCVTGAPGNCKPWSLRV

IC50 [1]	Compound	intrinsic fluorescence quenching (Stern-Volmer), excitation 280 nm [2]
1240 ± 20 µM	CC(=O)c1c(O)cccc1O [2,6-Dihydroxyacetophenone]	fluorescence quenching mechanism of DHAP, 4-HPEA and HBA for XOD were a single type
24500 ± 800 µM	OCCc1ccc(O)cc1 [4-Hydroxyphenethyl alcohol]	fluorescence quenching mechanism of DHAP, 4-HPEA and HBA for XOD were a single type

Compound	IC50 [1]	intrinsic fluorescence quenching (Stern-Volmer), excitation 280 nm [2]
O=Cc1ccc(O)cc1 [4-Hydroxybenzaldehyde]	2.67 ± 0.9 µM	fluorescence quenching mechanism of DHAP, 4-HPEA and HBA for XOD were a single type
